From patent publication US11028064B2, “Tricyclic heterocyclic derivatives and uses thereof” (AUCKLAND UNISERVICES LIMITED, priority 2016, dated 2021)

Legend:
CSF-1R (FMS) = CSF-1R (FMS) (Homo sapiens (Human), UniProt P07333); assay: SelectScreen Z'-LYTE kinase assay, Assay 336 for CSF-1R (FMS); assay type: biochemical; details: Z'-LYTE activity assay, 500 μM ATP (Km app); read-out: CSF-1R Enzyme IC50
KDR (VEGFR2) = KDR (VEGFR2) (Homo sapiens (Human), UniProt P35968); assay: SelectScreen Z'-LYTE kinase assay, Assay 540 for KDR (VEGFR2); assay type: biochemical; details: Z'-LYTE activity assay, 75 μM ATP (Km app); read-out: VEGFR2 Enzyme IC50
KDR (VEGFR2), sequence (P35968 20-1356): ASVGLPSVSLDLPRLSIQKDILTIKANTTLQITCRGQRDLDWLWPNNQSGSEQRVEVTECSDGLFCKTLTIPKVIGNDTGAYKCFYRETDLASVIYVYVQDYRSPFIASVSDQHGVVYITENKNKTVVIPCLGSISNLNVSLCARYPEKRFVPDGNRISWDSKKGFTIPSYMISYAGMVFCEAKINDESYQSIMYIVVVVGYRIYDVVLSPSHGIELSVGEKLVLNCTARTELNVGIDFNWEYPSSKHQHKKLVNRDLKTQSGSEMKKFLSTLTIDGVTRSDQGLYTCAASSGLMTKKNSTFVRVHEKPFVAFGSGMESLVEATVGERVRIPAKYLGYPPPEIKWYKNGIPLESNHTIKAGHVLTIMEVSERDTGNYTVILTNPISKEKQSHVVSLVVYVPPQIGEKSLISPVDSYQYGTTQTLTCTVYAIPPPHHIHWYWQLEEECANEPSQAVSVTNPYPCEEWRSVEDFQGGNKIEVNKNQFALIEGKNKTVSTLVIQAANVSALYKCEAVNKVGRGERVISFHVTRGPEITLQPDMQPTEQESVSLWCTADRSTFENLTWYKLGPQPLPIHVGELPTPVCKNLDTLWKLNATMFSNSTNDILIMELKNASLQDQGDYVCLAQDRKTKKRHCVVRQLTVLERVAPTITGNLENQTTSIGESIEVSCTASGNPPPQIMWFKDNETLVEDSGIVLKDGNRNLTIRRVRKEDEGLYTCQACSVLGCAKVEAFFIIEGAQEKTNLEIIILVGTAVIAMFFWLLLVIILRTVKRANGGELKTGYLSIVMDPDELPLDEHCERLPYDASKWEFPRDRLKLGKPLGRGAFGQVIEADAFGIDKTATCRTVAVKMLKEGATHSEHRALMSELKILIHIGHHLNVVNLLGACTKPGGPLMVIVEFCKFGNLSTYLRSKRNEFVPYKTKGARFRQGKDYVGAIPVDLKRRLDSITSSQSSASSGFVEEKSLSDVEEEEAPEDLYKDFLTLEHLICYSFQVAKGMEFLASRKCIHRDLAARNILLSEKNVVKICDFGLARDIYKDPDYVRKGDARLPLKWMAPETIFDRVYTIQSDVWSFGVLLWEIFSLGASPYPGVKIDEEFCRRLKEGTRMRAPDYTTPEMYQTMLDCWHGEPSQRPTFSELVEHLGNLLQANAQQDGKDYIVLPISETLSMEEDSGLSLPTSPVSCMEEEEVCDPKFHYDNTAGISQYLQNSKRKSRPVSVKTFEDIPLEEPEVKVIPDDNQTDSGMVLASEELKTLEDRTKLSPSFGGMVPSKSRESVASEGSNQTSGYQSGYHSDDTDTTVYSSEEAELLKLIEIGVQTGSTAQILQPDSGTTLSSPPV

CSF-1R (FMS), sequence (P07333 20-972): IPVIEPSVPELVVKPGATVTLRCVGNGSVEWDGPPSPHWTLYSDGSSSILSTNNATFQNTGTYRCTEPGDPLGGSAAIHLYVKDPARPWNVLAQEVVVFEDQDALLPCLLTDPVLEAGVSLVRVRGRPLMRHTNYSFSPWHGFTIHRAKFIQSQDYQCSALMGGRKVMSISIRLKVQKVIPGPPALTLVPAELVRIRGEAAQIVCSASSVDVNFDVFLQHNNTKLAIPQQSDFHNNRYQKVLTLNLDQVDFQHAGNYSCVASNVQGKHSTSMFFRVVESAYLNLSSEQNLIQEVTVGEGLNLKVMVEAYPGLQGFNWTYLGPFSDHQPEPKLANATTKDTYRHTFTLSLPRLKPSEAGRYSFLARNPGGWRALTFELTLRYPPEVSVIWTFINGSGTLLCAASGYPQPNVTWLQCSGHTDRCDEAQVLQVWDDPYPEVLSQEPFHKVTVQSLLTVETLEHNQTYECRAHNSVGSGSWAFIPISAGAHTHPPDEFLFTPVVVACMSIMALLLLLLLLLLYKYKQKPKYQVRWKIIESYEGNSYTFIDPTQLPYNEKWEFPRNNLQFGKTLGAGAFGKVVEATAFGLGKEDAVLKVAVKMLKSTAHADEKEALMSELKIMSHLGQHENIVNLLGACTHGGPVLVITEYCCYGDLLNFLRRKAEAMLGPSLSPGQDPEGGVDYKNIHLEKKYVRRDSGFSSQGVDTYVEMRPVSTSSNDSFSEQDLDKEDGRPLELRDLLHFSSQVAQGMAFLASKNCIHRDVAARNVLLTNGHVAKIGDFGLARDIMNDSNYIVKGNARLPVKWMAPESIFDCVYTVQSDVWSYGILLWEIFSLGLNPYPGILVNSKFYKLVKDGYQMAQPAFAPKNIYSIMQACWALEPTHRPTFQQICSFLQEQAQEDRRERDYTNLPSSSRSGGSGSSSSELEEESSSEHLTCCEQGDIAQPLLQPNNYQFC

Row | SMILES | IC50 (CSF-1R (FMS)) | IC50 (KDR (VEGFR2))
1 | Cc1cc(OCCCCN(C)C)c2oc3cc(Oc4ccccc4)ccc3c(=O)c2c1 [Example 34, 4-(4-(Dimethylamino)butoxy)-2-methyl-6-phenoxy-9H-xanthen-9-one] | 100 to 1000 nM | 1000 to 10000 nM
2 | COc1ccc(Oc2ccc3c(=O)c4cc(C)cc(OCCN(C)C)c4oc3c2)cn1 [Example 8, 4-(2-(Dimethylamino)ethoxy)-6-((6-methoxypyridin-3-yl)oxy)-2-methyl-9H-xanthen-9-one] | 100 to 1000 nM | > 10000 nM
3 | Cc1cc(OCCN(C)C)cc2c(=O)c3ccc(Oc4ccc(CCC(=O)NC5CCCC5)nc4)cc3oc12 [Example 45, N-Cyclopentyl-3-(5-((7-(2-(dimethylamino)ethoxy)-5-methyl-9-oxo-9H-xanthen-3-yl)oxy)pyridin-2-yl)propanamide] | < 100 nM | 1000 to 10000 nM
4 | Cc1cc(OCCN(C)C)c2oc3cc(Oc4ccc(NCc5ccc(OC(F)(F)F)cc5)nc4)ccc3c(=O)c2c1 [Example 15, 4-(2-(Dimethylamino)ethoxy)-2-methyl-6-((6-((4-(trifluoromethoxy)benzyl)amino)-pyridin-3-yl)oxy)-9H-xanthen-9-one] | < 100 nM | > 10000 nM
5 | Cc1cc(OCCN2C[C@@H](C)N(C)[C@@H](C)C2)c2oc3cc(Oc4ccc(CCC(=O)NC5CCCC5)nc4)ccc3c(=O)c2c1 [Example 62, N-Cyclopentyl-3-(5-((7-methyl-9-oxo-5-(2-((3S,5R)-3,4,5-trimethylpiperazin-1-yl)ethoxy)-9H-xanthen-3-yl)oxy)pyridin-2-yl)propanamide] | < 100 nM | > 10000 nM
6 | Cc1cc(OCCN(C)C)c2oc3cc(Oc4ccc(NCC(=O)NC5CCCC5)nc4)ccc3c(=O)c2c1 [Example 25, N-Cyclopentyl-2-((5-((5-(2-(dimethylamino)ethoxy)-7-methyl-9-oxo-9H-xanthen-3-yl)oxy)pyridin-2-yl)amino)acetamide] | < 100 nM | > 10000 nM
7 | COc1cc(Oc2ccc3c(=O)c4cc(C)cc(OCCN(C)C)c4oc3c2)cnc1OC [Example 9, 6-((5,6-Dimethoxypyridin-3-yl)oxy)-4-(2-(dimethylamino)ethoxy)-2-methyl-9H-xanthen-9-one] | < 100 nM | > 10000 nM
8 | Cc1cc(OCCC2CCN(C)CC2)c2oc3cc(Oc4ccccc4)ccc3c(=O)c2c1 [Example 36, 2-Methyl-4-(2-(1-methylpiperidin-4-yl)ethoxy)-6-phenoxy-9H-xanthen-9-one] | 100 to 1000 nM | 1000 to 10000 nM
9 | Cc1cc(OCCN(C)C)c2oc3cc(Oc4cccc(C(=O)Nc5ccccc5)c4)ccc3c(=O)c2c1 [Example 5, 3-((5-(2-(Dimethylamino)ethoxy)-7-methyl-9-oxo-9H-xanthen-3-yl)oxy)-N-phenyl-benzamide] | – | 1000 to 10000 nM
10 | Cc1cc(OC2CCN(C)CC2)c2oc3cc(Oc4ccc(CCC(=O)NC5CCCC5)nc4)ccc3c(=O)c2c1 [Example 71, N-Cyclopentyl-3-[5-({7-methyl-5-[(1-methyl-4-piperidinyl)oxy]-9-oxo-9H-xanthen-3-yl}oxy)-2-pyridinyl]propanamide] | – | 1000 to 10000 nM
11 | Cc1cc(OC[C@H]2CCCN2C)c2oc3cc(Oc4ccc(CCC(=O)NC5CCCC5)nc4)ccc3c(=O)c2c1 [Example 72, (R)—N-Cyclopentyl-3-(5-((7-methyl-5-((1-methylpyrrolidin-2-yl)methoxy)-9-oxo-9H-xanthen-3-yl)oxy)pyridin-2-yl)propanamide] | < 100 nM | –
12 | Cc1cc(OCCN(C)C)c2oc3cc(Oc4ccc(CCC(=O)N5CCOCC5)nc4)ccc3c(=O)c2c1 [Example 24, 4-(2-(Dimethylamino)ethoxy)-2-methyl-6-((6-(3-morpholino-3-oxopropyl)pyridin-3-yl)oxy)-9H-xanthen-9-one] | < 100 nM | –
13 | Cc1cc(OC2CCCN(C)C2)c2oc3cc(Oc4ccc(CCC(=O)NC5CCCC5)nc4)ccc3c(=O)c2c1 (centres unmarked) [Example 60, N-Cyclopentyl-3-(5-((7-methyl-5-((1-methylpiperidin-3-yl)oxy)-9-oxo-9H-xanthen-3-yl)oxy)pyridin-2-yl)propanamide] | < 100 nM | –
14 | Cc1cc(OCCCN2[C@H](C)CCC[C@@H]2C)c2oc3cc(Oc4ccc(CCC(=O)NC5CCCC5)nc4)ccc3c(=O)c2c1 [Example 64, N-Cyclopentyl-3-(5-((5-(3-((2R,6S)-2,6-dimethylpiperidin-1-yl)propoxy)-7-methyl-9-oxo-9H-xanthen-3-yl)oxy)pyridin-2-yl)propanamide] | < 100 nM | –
15 | Cc1cc(OCCN(C)C)c2oc3cc(Oc4ccc(CCC(=O)N5CCN(C)CC5)nc4)ccc3c(=O)c2c1 [Example 54, 4-(2-(Dimethylamino)ethoxy)-2-methyl-6-((6-(3-(4-methylpiperazin-1-yl)-3-oxopropyl)pyridin-3-yl)oxy)-9H-xanthen-9-one] | < 100 nM | –
16 | Cc1cc(OC2CCN(C)C2)c2oc3cc(Oc4ccc(CCC(=O)NC5CCCC5)nc4)ccc3c(=O)c2c1 (centres unmarked) [Example 70, N-Cyclopentyl-3-(5-((7-methyl-5-((1-methylpyrrolidin-3-yl)oxy)-9-oxo-9H-xanthen-3-yl)oxy)pyridin-2-yl)propanamide] | < 100 nM | –
17 | COc1ccc(COc2ncc(Oc3ccc4c(=O)c5cc(C)cc(OCCN(C)C)c5oc4c3)cc2OC)cc1 [Example 12, 4-(2-(Dimethylamino)ethoxy)-6-((5-methoxy-6-((4-methoxybenzyl)oxy)pyridin-3-yl)oxy)-2-methyl-9H-xanthen-9-one] | < 100 nM | –

The remaining lines, values ahead:

Row | IC50 (CSF-1R (FMS)) | IC50 (KDR (VEGFR2)) | SMILES
18 | 100 to 1000 nM | > 10000 nM | Cc1cc(OCCCN2CCOCC2)c2oc3cc(Oc4ccccc4)ccc3c(=O)c2c1 [Example 33, 2-Methyl-4-(3-morpholinopropoxy)-6-phenoxy-9H-xanthen-9-one]
19 | < 100 nM | 1000 to 10000 nM | Cc1cc(OCCN(C)C)c2oc3cc(Sc4ccc(CCC(=O)NC5CCCC5)nc4)ccc3c(=O)c2c1 [Example 43, N-Cyclopentyl-3-(5-((5-(2-(dimethylamino)ethoxy)-7-methyl-9-oxo-9H-xanthen-3-yl)thio)pyridin-2-yl)propanamide]
20 | 100 to 1000 nM | 1000 to 10000 nM | Cc1cc(OCCCN(C)C)c2oc3cc(Oc4ccccc4)ccc3c(=O)c2c1 [Example 30, 4-[3-(Dimethylamino)propoxy]-2-methyl-6-phenoxy-9H-xanthen-9-one]
21 | < 100 nM | – | COc1ccc(COc2ccc(Oc3ccc4c(=O)c5cc(C)cc(OCCN(C)C)c5oc4c3)cn2)cc1 [Example 10, 4-(2-(Dimethylamino)ethoxy)-6-((6-((4-methoxybenzyl)oxy)pyridin-3-yl)oxy)-2-methyl-9H-xanthen-9-one]
22 | 100 to 1000 nM | – | Cc1cc(OCC2CCN(C)CC2)c2oc3cc(Oc4ccccc4)ccc3c(=O)c2c1 [Example 35, 2-Methyl-4-((1-methylpiperidin-4-yl)methoxy)-6-phenoxy-9H-xanthen-9-one]
23 | 1000 to 10000 nM | – | CN(C)CCOc1cc(Cl)cc2c(=O)c3ccc(Oc4ccccc4)cc3oc12 [Example 39, 2-Chloro-4-[2-(dimethylamino)ethoxy]-6-phenoxy-9H-xanthen-9-one]
24 | < 100 nM | – | Cc1cc(OCCCN2C[C@@H](C)N(C)[C@@H](C)C2)c2oc3cc(Oc4ccc(CCC(=O)NC5CCCC5)nc4)ccc3c(=O)c2c1 [Example 68, N-Cyclopentyl-3-(5-((7-methyl-9-oxo-5-(3-((3S,5R)-3,4,5-trimethylpiperazin-1-yl)propoxy)-9H-xanthen-3-yl)oxy)pyridin-2-yl)propanamide]
